We go through four compounds from patent US11839659B2, “Proteolysis-targeting chimeric molecules (PROTACs) that induce degradation of indoleamine 2,3-dioxygenase (IDO) protein” (Northwestern University, priority 2020, dated 2023).

Entries after “also recorded” stand apart in the source; their conditions may differ. Peptide text beside a SMILES is read from it. * marks the point of attachment. Cbz = O=C(OCc1ccccc1)*

Assay type in all cases: cell-based
Assay [1] has as its target T1, IDO1 (Homo sapiens, UniProt P14902).
T1 construct: IDO1 protein was induced in U87 cells with IFNg (50 ng/ml) for 24 hours followed by treatment with IDO-PROTAC; endogenous in cells; host or cells: U87 parental cells; GBM43 cells (IFNg-induced)
Briefly: Western blot: effect of competitors and pathway inhibitors on IDO-PROTAC induced IDO1 degradation. The settings on record: co-treatment with IDO-PROTAC, U87 cells where stated.

The target of assay [2] is T1, IDO1. Briefly: Western blot of IFNg-induced IDO1 protein levels in U87 cells after IDO-PROTAC treatment. The conditions noted are these: IFNg (50 ng/ml) 24 hours, then IDO-PROTAC 24 hours. The procedure: FIG. 2. Screening method for PROTAC-induced degradation of IDO1 using INFg-treated U87 parental cells.
(§1) FIG. 20. Discovery of lead IDO-PROTAC to induce IDO1 degradation in cancer cells. A. Schema for screening IDO-PROTAC compounds in U87 cells. […] Percent IFNg-induced IDO1 levels (normalized to untreated samples) were calculated in U87 cells after treating with IDO-PROTAC compounds at 0, 0.1, 1, and 10 uM concentration for 24 hours. C. […] IDO1 was induced in U87 and GBM43 cells with IFNg (50 ng/ml) for 24 hours followed by treatment with IDO-PROTAC for 24 hours before protein samples were prepared for western blotting analysis. D. Percent normalized IDO1 protein levels in U87 and GBM43 cells (from panel C) after treating with lead IDO-PROTAC (NU223612) for 24 hours. E & F. Testing moderate and poor IDO-PROTAC compounds on IDO1 protein levels in U87 cells. […] Structures of IDO-PROTAC (I), mutant IDO-PROTAC (J), and parental compound (K).
FIG. 27. Representative western blots to identify a lead IDO-PROTAC in U87 cells. IDO1 protein was induced in U87 cells with IFNg (50 ng/ml) for 24 hours followed by treatment with IDO-PROTAC at 0, 0.1, 1, and 10 uM for 24 hours before protein samples were prepared for western blotting analysis of IDO1 and GAPDH.
Background: In western blotting, separated proteins are transferred to a membrane and probed.

The target in assay [3] is T1, IDO1. The assay is described as follows: Western blot of IFNg-induced IDO1 protein levels in GBM43 cells after IDO-PROTAC treatment. The settings on record: IFNg (50 ng/ml) 24 hours, then IDO-PROTAC 24 hours. The procedure: as §1
The target in assay [4] is T1, IDO1. Briefly: Enzyme-dependent (kynurenine production) and enzyme-independent (phospho-NFkB p65) functions of IDO1 in GBM cells. The conditions noted are these: GBM cells (U87, GBM43). The procedure: FIG. 24. […] A & B. Effect of IDO-PROTAC, mutant IDO-PROTAC, and IDO-inhibitor on kynurenine production in U87 & GBM43 cells respective cells. Cells were treated with IDO-PROTAC, mutant IDO-PROTAC, or IDO-inhibitor in the presence of INFg (50 ng/ml) for 24 hours and cell culture supernatants were collected to measure IFNg-induced kynurenine levels using a modified Erlich method. Cells cultured in the absence of IFNg serves as a control group. C. Western blotting analysis to determine the effect of IDO-PROTAC and IDO-inhibitor on IDO1 protein levels, phospho-NFkB (p65) levels, total-NFkB (p65) levels and GAPDH levels in U87 cells. IDO1 protein was induced with IFNg for 24 hours in U87 cells followed by treatment with IDO-PROTAC and IDO-inhibitor for 24 hours at multiple concentrations. D. Western blotting analysis to determine the effect of IDO-PROTAC, mutant IDO-PROTAC, and IDO-inhibitor on IDO1 protein levels, phospho-NFkB (p65) levels, total-NFkB (p65) levels and GAPDH levels in a breast cancer cell line, MDA MB 231. E. Western blotting analysis to determine the effect of IDO-PROTAC on the levels of IDO1 protein, phospho-NFkB (p65), total-NFkB (p65) and GAPDH in U87 IDO1 overexpressing (flag-tagged) cells. Cells were treated with DMSO or IDO-PROTAC (10 uM) for 24 hours prior to protein extraction. U87 parental cells serves as a control group for basal phosphorylation of NFkB. […]

T1 sequence (P14902 whole entry): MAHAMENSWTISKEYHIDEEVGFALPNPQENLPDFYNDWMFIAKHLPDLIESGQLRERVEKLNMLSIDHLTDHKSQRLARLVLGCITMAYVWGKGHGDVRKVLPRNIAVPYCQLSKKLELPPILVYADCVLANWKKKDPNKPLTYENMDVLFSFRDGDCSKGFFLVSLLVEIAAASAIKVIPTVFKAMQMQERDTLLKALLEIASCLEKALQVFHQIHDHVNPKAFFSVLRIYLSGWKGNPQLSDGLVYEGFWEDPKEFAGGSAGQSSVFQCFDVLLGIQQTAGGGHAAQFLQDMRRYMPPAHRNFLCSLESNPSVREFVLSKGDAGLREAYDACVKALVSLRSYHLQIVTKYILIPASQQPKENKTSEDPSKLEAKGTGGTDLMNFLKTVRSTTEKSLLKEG

On to `CC(C)C[C@@H](C=O)NC(=O)[C@H](CC(C)C)NC(=O)[C@H](CC(C)C)NC(=O)OCc1ccccc1` [MG132] (Cbz-Leu-Leu-Leu-aldehyde), for which the “Effect on NU223612 (IDO-PROTAC) induced IDO1 degradation” value at IDO1 [1] was “blocks NU223612 induced IDO1 degradation; also recorded: blocks IDO-PROTAC-induced IDO1 degradation”. On the same count and under the same terms, under `NS(=O)(=O)OC[C@@H]1C[C@@H](n2ccc3c(N[C@H]4CCc5ccccc54)ncnc32)C[C@@H]1O` [MLN4924] stands “blocks IDO-PROTAC-induced IDO1 degradation”.

As for `C[C@@H](C(=O)Nc1ccc(OC2CCN(C(=O)CCOCCOCCNc3cccc4c3C(=O)N(C3CCC(=O)NC3=O)C4=O)CC2)cc1)[C@H]1CC[C@@H](c2ccnc3ccc(F)cc32)CC1` (stereo partly shown) [NU223612], the “IDO1 degradation (western blot)” value on IDO1 [2] and on IDO1 [3] was “induced IDO1 degradation” throughout. In addition, the “Effect on enzyme-dependent and enzyme-independent functions of IDO1” value on IDO1 [4] is “inhibits both enzyme-dependent and enzyme-independent functions of IDO1”.

`Nc1cccc2c1C(=O)N(C1CCC(=O)NC1=O)C2=O` (stereo not shown) [Pomalidomide]: the “Effect on NU223612 (IDO-PROTAC) induced IDO1 degradation” value is recorded as “blocks IDO-PROTAC-induced IDO1 degradation” on IDO1 [1] and “blocks NU223612 induced IDO1 degradation” at IDO1 [1] (listed as CRBN ligand).
